For data set [1], the system named is human colon adenocarcinoma cell line (Lovo). As to the kind of experiment: MTT cytotoxicity assay on human colon adenocarcinoma Lovo cells. Format: cell-based. Conditions: read-out: IC50 µg/ml±S.D. LoVo. As for the experimental part: (§1) The evaluation of the "in vitro" cytotoxic activity of the compounds of the invention was performed using a human colon adenocarcinoma cell line (Lovo) isolated from a metastatic nodule and a subline with aquired resistance to a number of antitumor agents, among which doxorubicin, VP-16 and vincristine. […] The compounds were tested according to the MTT assay (Mosman, T., "Rapid Colorimetric assay for cellular growth and survival: application to proliferation and cytotoxicity assay", J. Immunol. Methods, (1983), 65, 55-63; Green, L.M., "Rapid colorimetric assay for cell viability; application to the quantitation of cytotoxic and growth inhibitory lymphokines", J. Immunol. Methods, (1984), 70, 257-268) in comparison with mitoxantrone, ametantrone and doxorubicin.
(§2) In vitro biological evaluation: MTT assay on human colon adenocarcinoma Lovo cells.
(§3) The MTT assay was performed according to Mosmann, T., J. Immunol. Methods, (1983), 65, 55-63 and Green, L. M., J. Immunol. Methods, (1984), 70, 257-268.
(§4) Immediately before use, compounds and reference standards are dissolved in proper solvent and subsequently further diluted in complete culture medium. Human colon adenocarcinoma cells Lovo and the subline resistant to doxorubicin (Lovo/DX) (2.5. 10^4 cells/ml) are plated in 96-well plates and preincubated for 24 hours in culture medium. After this time, the cells are exposed to drugs for 144 hours, then the thiazolyl blue tetrazolium bromide solution (MTT solution) is added and the cells are reincubated for 4 hours. The supernatant is removed and 150 µl of dimethylsulfoxide are added to solubilize formazan crystals. The plate is read at 570 nm with microplate reader and the inhibiting concentration of 50% cellular growth (IC50; µg/ml) is calculated.
In general terms: Tetrazolium dyes change colour on reduction, which living cells bring about.

In a further data set the test system is Lovo/DX. As to the kind of experiment: MTT cytotoxicity assay on doxorubicin-resistant subline Lovo/DX. It is filed as cell-based, human. To be noted: for IC50: Homo sapiens, LoVo/DX, MTT assay, 144 hrs drug exposure, read-out: IC50 µg/ml±S.D. LoVo/Dx; for R.I.: R.I. = (IC50 LoVo/Dx)/(IC50 LoVo); for cross resistance with mitoxantrone and ametantrone: resistant subline Lovo/DX. As for the experimental part: as §1, §2, §3, §4

The subject of a further data set is L1210 murine leukemia. Kind of data set: In vivo ascitic L1210 murine leukemia (ip/ip, d 1, 5, 9), protocol b, 10^5 cells. Also on record: species or system CDF1 mice. Conditions: for %T/C: median survival time; for TOX: toxic deaths/total No. of mice; for LTS: tumor free at 60 days. The method, then: Dosages of the drugs were administered ip according to preestablished protocols, usually at 4-day intervals. The studies were done over a 60-day period and the date of death for each animal was recorded. The % T/C was determined using the mean survival time (MST) for each group according to the formula % T/C = [(MST treated)/(MST control)] x 100 [formula]
• a) L1210 murine leukemia cells were maintained in vivo by weekly intraperitoneal (ip) injections of 10^6 cells in BDF1 mice. For test purposes, mice were inoculated i.p. with 10^6 L1210 cells and treatment was initiated 24 hours later. The desired dose of drug was administered on days 1, 5 and 9. Mice were observed daily for signs of toxicity and survival. The date of death was recorded for each animal that died or was sacrificed during the 60-day study. […] For test purposes, CDF1 mice were inoculated i.p. with 10^5 L1210 cells and treatment was initiated 24 hours later. The desired dose of drug was administered on days 1, 5 and 9. Mice were observed daily for signs of toxicity and survival. The date of death was recorded for each animal that died or was sacrificed during the 60-day study. The median survival time (MST) for each treatment group was calculated and the % T/C was determined using the following formula: % T/C = [(MST treated)/(MST control)] x 100 [formula]

The subject of data set [2] is P388 Murine Leukemia. Kind of data set: In vivo ascitic P388 murine leukemia (ip/ip, d 1, 5, 9). Conditions: for % T/C (range): median survival time; for TOX: toxic deaths/total No. of mice. Also noted: species or system CDF1 mice. As for the experimental part:
Treatment was initiated approximately 24 hours after tumor transplantation and dosages of the drug were administered ip (P388 ip/ip) or iv (P388 iv/iv) according to preestablished protocols, usually at 3-day (P388 iv/iv) or 4-day (P388 ip/ip) intervals. The studies were done over a 60-day period and the date of death for each animal was recorded. The % T/C was determined using the mean survival time (MST) for each group according to the formula % T/C = [(MST treated)/(MST control)] x 100 [formula]
P388 Murine Leukemia cells were maintained in vivo by serial intraperitoneal (ip) injections of 10^6 cells in DBA2 mice. For test purposes, CDF1 mice were inoculated i.p. with 10^6 P388 cells and treatment was initiated 24 hours later. The i.p dose of drug was administered on days 1, 5 and 9. Mice were observed daily for signs of toxicity and survival. The date of death was recorded for each animal that died or was sacrificed during the 60-day study. The median survival time (MST) for each treatment group was calculated and the % T/C was determined using the following formula: % T/C = [(MST treated)/(MST control)] x 100 [formula]

The subject of data set [3] is P388 Murine Leukemia. Kind of data set: In vivo P388 murine leukemia (iv/iv, d 1, 4, 7). Conditions: for T/C% (range): median survival time; for TOX: toxic deaths/total number of mice; for LTS: tumor free at 60 days. The method, then:
P388 Murine Leukemia cells were maintained in vivo by serial intraperitoneal (i.p.) injections of 10^6 cells in DBA2 mice. For test purposes, CDF1 mice were inoculated intravenously (i.v.) with 10^6 P388 cells and treatment was initiated 24 hr later. The i.v. dose of drug was administered on days 1, 4 and 7. Mice were observed daily for signs of toxicity and survival. The date of death was recorded for each animal that died or was sacrificed during the 60 day study. The median survival time (MST) for each treatment group was calculated and the % T/C was determined using the following formula: % T/C = [(MST treated)/(MST control)] x 100 [formula]

[4] abbreviates: MTT assay, 144 hrs drug exposure.

Values after ≈ are worked out from the molar mass of the structure shown. Read-outs that look alike come from different tables or passages of the source.

As for `O=C1c2ccccc2C(=O)c2c(NCCNCCO)ccc(NCCNCCO)c21` [Ametantrone, 1,4-bis{[2-(2-hydroxyethylamino)ethyl]amino}anthracene-9,10-dione, reference compound], the IC50 in data set [1] (setting [4]) was determined as 0.33 ± 0.1 µg/mL (≈ 0.8 µM). In the data set on Lovo/DX, the IC50 was found to be 33.4 ± 13.9 µg/mL (≈ 81 µM) and the R.I. was found to be 101.2.

As to `CCN(CC)CCNc1ccc(NCCN(CC)CC)c2c1C(=O)c1ccncc1C2=O` [Compound 10b, 6,9-Bis{[2-(diethylamino)ethyl]amino}benzo[g]isoquinoline-5,10-dione], in data set [1] (setting [4]), the IC50 worked out at 0.29 ± 0.05 µg/mL (≈ 0.663 µM). In the data set on Lovo/DX, the IC50 worked out at 0.69 ± 0.1 µg/mL (≈ 1.58 µM); the R.I. came to 2.4; the “cross resistance with mitoxantrone and ametantrone” value (from here on “cross resistance”) is “no cross resistance”.

For the molecule `O=C1c2ccncc2C(=O)c2c(NCCN3CCCC3)ccc(NCCN3CCCC3)c21` [Compound 10d, 6,9-Bis{[2-(1'-pyrrolidino)ethyl]amino}benzo[g]isoquinoline-5,10-dione], the IC50 in data set [1] (setting [4]) was 0.2 ± 0.03 µg/mL (≈ 0.461 µM). In the data set on Lovo/DX, the IC50 is 0.52 ± 0.15 µg/mL (≈ 1.2 µM); the R.I. is on record as 2.6; the “cross resistance” value is on record as “no cross resistance”.

Consider `O=C1c2ccncc2C(=O)c2c(NCCN3CCOCC3)ccc(NCCN3CCOCC3)c21` [Compound 10e, 6,9-Bis{[2-(4'-morpholino)ethyl]amino}benzo[g]isoquinoline-5,10-dione], for which the IC50 in data set [1] (setting [4]) was 5.32 ± 1.55 µg/mL (≈ 11.4 µM). Also, in the data set with Lovo/DX, the IC50 was 2.29 ± 0.67 µg/mL (≈ 4.92 µM); the R.I. worked out at 0.4; the “cross resistance” value is “no cross resistance”.

`NCCCNc1ccc(NCCCN)c2c1C(=O)c1ccncc1C2=O` [Compound 12a, 6,9-Bis{[3-(amino)propyl]amino}benzo[g]isoquinoline-5,10-dione]: the IC50 in data set [1] (setting [4]) was found to be 1.64 ± 0.02 µg/mL (≈ 4.64 µM). Moreover, in the data set on Lovo/DX, the IC50 stood at 20.9 ± 0.72 µg/mL (≈ 59.1 µM) and the R.I. is 12.7.

On to `CN(C)CCCNc1ccc(NCCCN(C)C)c2c1C(=O)c1ccncc1C2=O` [Compound 12c, 6,9-Bis{[3-(dimethylamino)propyl]amino}benzo[g]isoquinoline-5,10-dione], for which the IC50 in data set [1] (setting [4]) turned out to be 0.15 ± 0.07 µg/mL (≈ 0.366 µM). Further, in the data set with Lovo/DX, the IC50 was 0.36 ± 0.04 µg/mL (≈ 0.879 µM); the R.I. is listed as 2.4; the “cross resistance” value is on record as “no cross resistance”.

Take `COc1cccc2c1C(=O)c1c(O)c3c(c(O)c1C2=O)C[C@@](O)(C(=O)CO)C[C@@H]3O[C@H]1C[C@H](N)[C@H](O)[C@H](C)O1` [Doxorubicin, reference compound]: the IC50 in data set [1] (setting [4]) turned out to be 0.03 ± 0.009 µg/mL (≈ 0.0552 µM). For the same molecule, in the data set on Lovo/DX, the IC50 was 4.28 ± 1.8 µg/mL (≈ 7.87 µM) and the R.I. is listed as 142.7.

For the molecule `O=C1c2c(O)ccc(O)c2C(=O)c2c(NCCNCCO)ccc(NCCNCCO)c21` [Mitoxantrone, 5,8-dihydroxy-1,4-bis{[2-(2-hydroxyethylamino)ethyl]amino}anthracene-9,10-dione, reference compound], the entries for the “%T/C” value in the data set with L1210 murine leukemia (1.5 mg/kg/day ip days 1,5,9) and with L1210 murine leukemia (3 mg/kg/day ip days 1,5,9) were 188% and 194%, respectively. In addition, the TOX was 0/8 in the data set on L1210 murine leukemia (1.5 mg/kg/day ip days 1,5,9); 1/8 in the data set on L1210 murine leukemia (3 mg/kg/day ip days 1,5,9); 6/26 with P388 Murine Leukemia [2] (1.5 mg/kg/day ip days 1,5,9); 21/42 with P388 Murine Leukemia [2] (3 mg/kg/day ip days 1,5,9); 0/42 with P388 Murine Leukemia [3] (2 mg/kg/day iv days 1,4,7); 4/78 in the data set with P388 Murine Leukemia [3] (3 mg/kg/day iv days 1,4,7). Moreover, in the data set with P388 Murine Leukemia [3] (4 mg/kg/day iv days 1,4,7), the TOX was 20/24. In addition, the LTS was 1/8 in the data set on L1210 murine leukemia (1.5 mg/kg/day ip days 1,5,9); 1/8 with L1210 murine leukemia (3 mg/kg/day ip days 1,5,9); 0/42 with P388 Murine Leukemia [3] (2 mg/kg/day iv days 1,4,7); 0/78 with P388 Murine Leukemia [3] (3 mg/kg/day iv days 1,4,7); 0/24 with P388 Murine Leukemia [3] (4 mg/kg/day iv days 1,4,7). Further, the IC50 in data set [1] (144 h) was found to be 0.01 ± 0.009 µg/mL (≈ 0.0225 µM); with Lovo/DX it was 0.29 ± 0.1 µg/mL (≈ 0.652 µM). The results for the “LTS (day 60)” value in the data set on P388 Murine Leukemia [2] (1.5 mg/kg/day ip days 1,5,9) and in the data set on P388 Murine Leukemia [2] (3 mg/kg/day ip days 1,5,9) were 1/26 and 1/42, respectively. Besides, the “% T/C (range)” value with P388 Murine Leukemia [2] (1.5 mg/kg/day ip days 1,5,9) is listed as 186(160-225) %; in the data set with P388 Murine Leukemia [2] (3 mg/kg/day ip days 1,5,9), 173(142-205) %. For the same molecule, the R.I. in the data set with Lovo/DX amounted to 29.0. Further, the “T/C% (range)” value is reported as 162(154-167) % in the data set on P388 Murine Leukemia [3] (2 mg/kg/day iv days 1,4,7), 185(167-217) % in the data set with P388 Murine Leukemia [3] (3 mg/kg/day iv days 1,4,7) and 118(89-133) % in the data set with P388 Murine Leukemia [3] (4 mg/kg/day iv days 1,4,7).

The record behind these values is patent EP0503537B1, “6,9 Bis(substituted-amino)benzo-[g]isoquinoline-5,10-diones” (THE UNIVERSITY OF VERMONT, priority 1991, dated 1992).
